Assay results: patent publication US4400199A, “Thiolcarbamate compounds and their use as herbicides” (priority 1981, dated 1983)
≈ marks a conversion by molar mass, not a printed value. Read-outs that look alike come from different tables or passages of the source.

Experiments:
[1] = system: barnyard grass (Echinochloa crus-galli); test: Experiment 1: herbicidal effects against barnyard grass (pot test, emulsifiable concentrate); assay type: in vivo
[2] = system: barnyard grass; test: Experiment 2: herbicidal effects against barnyard grass (pot test, granules); assay type: in vivo, Echinochloa crus-galli; settings: 2.5 leaf-stage, 25 days
[3] = system: broad-leaf weeds; test: Experiment 2: herbicidal effects against broad-leaf weeds (pot test, granules); assay type: in vivo; settings: 25 days
[4] = system: Hotarui (Scirpus juncoides); test: Experiment 2: herbicidal effects against Hotarui (pot test, granules); assay type: in vivo; settings: 25 days
[5] = system: Mizugayatsuri (Cyperus serotinus); test: Experiment 2: herbicidal effects against Mizugayatsuri (pot test, granules); assay type: in vivo; settings: 25 days
[6] = Experiment 3: acute toxicity to fish; assay type: in vivo, Black-carp fry; settings: carp, water; for LC50 at 48 h: read-out: Median lethal concentration TLm (48hrs)
Description: With respect to the compounds according to the present invention and the comparative compounds (Compound 10, Compound 12 and Compound 13), there were conducted tests on acute toxicity to carps.
In 25-liter water tanks made of glass was charged 20 liters of water. 12 Black-carp fry were released to each of the water tanks and bred while feeding for 7 days. Then, the whole quantity of water in each of the tanks was replaced with fresh water, and feeding to the carps was stopped. After three days, a prescribed amount of 1 weight % solution of a test compound in acetone was added to water in the water tank.
The number of survival fish in each tank was counted after 24 hours, 48 hours and 96 hours, successively.
The TLm (median tolerance limit=lethal concentration 50%) was determined by the Doudorff's method (Sewage & Ind. Wastes 23 (1951) 1380-1397).

[7] = Experiment 4: subacute toxicity to fish; assay type: in vivo, 2-year-old carps; settings: carp, water; 0.2 ppm; 3 weeks; read-out: Survival rate after 3 weeks
Description: (§1) With respect to the compounds according to the present invention and the comparative compounds listed in Table 4, there were conducted tests on subacute toxicity to 2-year-old carps having an average weight of 20 g.
(§2) Ten 2-year-old carps were released in each of 25-liter water tanks equipped with an air-blowing apparatus and acclimatized to the surroundings while feeding for 10 days. Water in each of the water tanks was continuously replaced with fresh water so that the residence time of water in the water tanks is 6 hours. Each test compound was added to a predetermined quantity of supply water to prepare a 0.2 ppm aqueous solution of each compound, and each of the aqueous solutions was continuously added to the water in the tank. After three weeks, the hematocrit values of all the survival carps were determined. The hematocrit value used herein is intended to mean a volume percentage of erythrocyte contained in the blood.

[8] = system: carps; test: Experiment 4: subacute toxicity to fish; assay type: in vivo, 2-year-old carps; settings: 0.2 ppm; 3 weeks
Description: as §1, §2

[9] = system: paddy field weeds; test: Experiment 2: herbicidal effects against paddy field weeds, overall; assay type: in vivo; settings: compared with Molinate (Compound 13)
[10] = system: rice plants; settings: in vivo
[11] = system: rice plants; settings: in vivo; remark: listed apart in the source
[12] = system: rice plants; test: Experiment 2: phytotoxicity to rice plants (pot test, granules); settings: for phytotoxicity rice plant: 25 days

| Structure (SMILES) | herbicidal activity (barnyard grass) ([2]; 150 g/10a.) | herbicidal activity (barnyard grass) ([2]; 300 g/10a.) | herbicidal activity (barnyard grass) ([2]; 600 g/10a.) | Herbicidal activity broad-leaf weeds ([3]; 150 g/10a.) | Herbicidal activity broad-leaf weeds ([3]; 300 g/10a.) | Herbicidal activity broad-leaf weeds ([3]; 600 g/10a.) | Herbicidal activity Hotarui (Scirpus juncoides) ([4]; 150 g/10a.) | Herbicidal activity Hotarui (Scirpus juncoides) ([4]; 300 g/10a.) | Herbicidal activity Hotarui (Scirpus juncoides) ([4]; 600 g/10a.) | Herbicidal activity Mizugayatsuri (Cyperus serotinus) ([5]; 150 g/10a.) | Herbicidal activity Mizugayatsuri (Cyperus serotinus) ([5]; 300 g/10a.) | Herbicidal activity Mizugayatsuri (Cyperus serotinus) ([5]; 600 g/10a.) | LC50 at 48 h [6] [µg/mL] | survival at 504 h [7] [%] | Average Hematocrit Value of survival fish [8] [%] | subacute toxicity to carps (in words) [8] | survival of carps (in words) [8] | symptoms of anemia in carps (in words) [8] | herbicidal activity (in words) [9] | further results |
| --- | --- | --- | --- | --- | --- | --- | --- | --- | --- | --- | --- | --- | --- | --- | --- | --- | --- | --- | --- | --- |
| CC1CCCCN1C(=O)SCCCCl (stereo not shown) [Compound 12, reference compound] | 5 (more than 90%) | 5 (more than 90%) | 5 (more than 90%) | 5 (more than 90%) | 5 (more than 90%) | 5 (more than 90%) | 4 (70 to 89%) | 5 (more than 90%) | 5 (more than 90%) | 4 (70 to 89%) | 4 (70 to 89%) | 5 (more than 90%) | < 0.5 | 70 | 19 | high subacute toxicity to carps | extremely low | remarkable symptons of anemia | excellent herbicidal activities | herbicidal activity (barnyard grass) ([1]; 1.5 leaf-stage of barnyard grass, 150 g/10a., 25 days): 5 (more than 90%); herbicidal activity (barnyard grass) ([1]; 1.5 leaf-stage of barnyard grass, 300 g/10a., 25 days): 5 (more than 90%); herbicidal activity (barnyard grass) ([1]; 1.5 leaf-stage of barnyard grass, 600 g/10a., 25 days): 5 (more than 90%); herbicidal activity (barnyard grass) ([1]; 3 leaf-stage of barnyard grass, 150 g/10a., 25 days): 5 (more than 90%); herbicidal activity (barnyard grass) ([1]; 3 leaf-stage of barnyard grass, 300 g/10a., 25 days): 5 (more than 90%); herbicidal activity (barnyard grass) ([1]; 3 leaf-stage of barnyard grass, 600 g/10a., 25 days): 5 (more than 90%); herbicidal activity (in words) ([1]; barnyard grass): sufficient herbicidal activities; LC50 at 24 h ([6]; 24 hrs, read-out: Median lethal concentration TLm (24hrs)): 1 µg/mL (≈ 4.24 µM); harmful effects to rice plants (in words) [10]: without harmful effects to rice plants |
| CCN(CC)C(=O)SCCCCl [Compound 10, reference compound] | 5 (more than 90%) | 5 (more than 90%) | 5 (more than 90%) | 5 (more than 90%) | 5 (more than 90%) | 5 (more than 90%) | 4 (70 to 89%) | 4 (70 to 89%) | 5 (more than 90%) | 4 (70 to 89%) | 4 (70 to 89%) | 5 (more than 90%) | > 20 | 80 | 16 | high subacute toxicity to carps | extremely low | remarkable symptons of anemia | excellent herbicidal activities | herbicidal activity (barnyard grass) ([1]; in vivo): 5 (key: 5: more than 90%; 4: 70 to 89%; 3: 50 to 69%; 2: 30 to 49%; 10 to 29%; less than 10%); herbicidal activity (in words) ([1]; in vivo): sufficient herbicidal activities; LC50 at 96 h ([6]; 96 hrs, read-out: Median lethal concentration TLm (96hrs)): 18 µg/mL (≈ 85.8 µM); phytotoxicity rice plant [11]: 0 (key: 5: more than 90%; 4: 70 to 89%; 3: 50 to 69%; 2: 30 to 49%; 10 to 29%; less than 10%); harmful effects to rice plants (in words) [12]: without harmful effects to rice plants; phytotoxicity rice plant ([12]; 150 g/10a.): 0 (less than 10%); phytotoxicity rice plant ([12]; 300 g/10a.): 0 (less than 10%); phytotoxicity rice plant ([12]; 600 g/10a.): 0 (less than 10%) |
